From patent US6894068B2, “Substituted benzimidazoles as non-nucleoside inhibitors of reverse transcriptase” (The United States of America as represented by the …, priority 1997, dated 2005) come the findings set out here.

Several values for one entry are separate records, joined by “and”; a condition that tells them apart may be missing. Identical values can stand only once. Like-named read-outs stand apart in the source and are kept apart here.

Usually melting point stands for the temperature of the solid-liquid transition. As a reminder, the EC50 is the concentration needed to bring the measured effect to its halfway point. As usually defined, the IC50 is the midpoint of a concentration-inhibition curve.

One data set has as its system HIV-1 WT virus (NL4-3). The data set can be described thus: microbe, parasite or virus in culture. Type of data set: cell-based. Conditions: for EC50 / EC50 (μM): Table 11, CEMSS/NL4-3, NRVC = no reduction in viral CPE; for EC50: read-out: EC50; for inhibitory potency against HIV-1 (CIC50), result in words: CEMSS cell culture, WT virus (NL4-3), relative to parent compounds 1 and 2; for cytotoxicity and anti-viral effect, summary graph, result in words: FIGS. 10-12. The procedure: Evaluation of these compounds for the inhibition of HIV-1 was determined as the fifty percent cell culture inhibitory concentration (CIC50) in CEMSS cell culture with WT virus (NL4-3).
In this Example, the antiviral and cellular toxicity of NNRTIs was investigated, using the cytopathic cell killing assay described by Yang (Yang et al., “Characteristics of a Group of Non-nucleoside Reverse Transcriptase Inhibitors with Structural Diversity and Potent Anti-Human Immunodeficiency Virus Activity,” Leukemia 9:S75-S85 [1995]). Briefly, in this method cells (e.g., the CEM-SS cell line, available from the NIAID AIDS Research and Reference Program [ARRRP]) were seeded at a density of 5×10^3 cells/well, into the wells of a 96-well microtiter plate. The cells were then infected with HIV virus (either mutant or WT), at a multiplicity of infection (MOI) previously determined to provide complete cell killing by 6 days of culture post-infection (e.g., MOI of 0.01-0.05). Each of the HIV isolates was pre-titered to induce equivalent levels of infection based on cell killing or virus production, prior to their use in these assays. A range of test compound concentrations was added to the wells in triplicate (e.g., serial half-log dilutions) to evaluate inhibition of HIV infection. Controls for each assay included drug controls (drug colorimetric control wells), drug cytotoxicity control wells (cells with drug), virus control wells (cells with virus), and cell viability controls (cells only). Positive control drugs (e.g. AZT and ddC) were also run in parallel.
After six days of incubation at 37° C., cell viability was determined spectrophotometrically at 450 nm for each well, using the metabolic reduction of XTT to a soluble colored formazan. (See, Gartner and Popovic, “Virus Isolation and Production, in Aldovini and Walker (eds.), Techniques in HIV Research, Stockton Press, NY, pp. […] [1991]; and Nara and Fischinger, “Quantitative Infectivity Assay for HIV-1 and HIV-2, ” Nature 332:469-470 [1988]).
The in vitro therapeutic index (TI50) was defined as the fold-difference between the EC50 and IC50. The results for the various compounds are included in FIGS. 8 and 19.

For a further data set, the target named is HIV-1 WT RT (Human immunodeficiency virus type 1 group M subtype B, UniProt P03366). The data set can be described thus: biochemical. Type of data set: biochemical. Conditions: for inhibition at 10 µM: read-out: % inhibn (10 μM).
Where [1] appears, read: Human immunodeficiency virus 1, NL43, CEM-SS.

`Cc1cccc2c1nc(-c1cccc3ccccc13)n2Cc1c(F)cccc1F` [Compound 37, 1-(2,6-difluorobenzyl)-2-(1-naphthyl)-4-methylbenzimidazole] yielded a melting point of 121 to 123 °C.

On to `CC(=O)OCc1cccc2c1nc(-c1c(F)cccc1F)n2Cc1c(F)cccc1F` [Compound 51, 1-(2,6-difluorobenzyl)-2-(2,6-difluorophenyl)-4-acetoxymethylbenzimidazole], for which, in the data set with HIV-1 WT virus (NL4-3) (setting [1]), the concentration giving a half-maximal response (EC50) worked out at 59 nM.

Turning to `Oc1cccc2c1nc(-c1c(F)cccc1F)n2Cc1c(F)cccc1F` [Compound 52, 1-(2,6-Difluorobenzyl)-2-(2,6-difluorophenyl)-4-hydroxyl-benzimidazole], the melting point is 257 to 259 °C. Besides, in the data set with HIV-1 WT virus (NL4-3) (setting [1]), the concentration for a half-maximal effect (EC50) was 650 nM.

Take `Fc1cccc(F)c1Cn1c(-c2c(F)cccc2F)nc2cc(Cl)ccc21`: the melting point is 136 °C and 136 to 137 °C.

`Cc1cc(C)c2nc(-c3c(F)cccc3F)n(Cc3c(F)cccc3F)c2c1` yielded a melting point of 153 to 154 °C.

Take `NC(=O)c1cccc2c1nc(-c1c(F)cccc1F)n2Cc1c(F)cccc1F` [Compound 62, 1-(2,6-difluorobenzyl)-2-(2,6-difluorophenyl)benzimidazole-4-carboxylic acid amide]: the melting point was 260 to 261 °C. Further, in the data set on HIV-1 WT virus (NL4-3), the “inhibitory potency against HIV-1 (CIC50), result in words” value (“inhibitory potency” below) is given as “clearly detrimental to potency”. In addition, the EC50 with HIV-1 WT virus (NL4-3) (setting [1]) turned out to be 4900 nM.

Turning to `Fc1cccc(F)c1Cn1c(-c2c(F)cccc2F)nc2c(CCl)cccc21` [Compound 69, 1-(2,6-difluorobenzyl)-2-(2,6-difluorophenyl)-4-chloromethylbenzimidazole], the melting point lay in the range of 143 to 144 °C. Moreover, the half-maximal effective concentration (EC50) in the data set on HIV-1 WT virus (NL4-3) (setting [1]) is 180 nM.

Compound `Cc1cccc2c1nc(-c1ccc3ccccc3c1)n2Cc1c(F)cccc1F` gave a melting point of 175 to 176 °C.

For the compound `CC(C)(O)c1cccc2c1nc(-c1c(F)cccc1F)n2Cc1c(F)cccc1F` [Compound 65, 1-(2,6-Difluorobenzyl)-2-(2,6-difluorophenyl)-4-benzimidazoyl-2-propanol], the EC50 in the data set on HIV-1 WT virus (NL4-3) was 6340 nM.

As to `N#Cc1cccc2c1nc(-c1c(F)cccc1F)n2Cc1c(F)cccc1F` [Compound 4007], on HIV-1 WT RT (Table 1, 10 μM drug, WT RT, rC-dG template primer), the “% inhibn (10 μM)” value was determined as 26%.

The compound `Fc1cccc(F)c1Cn1c(-c2ccccc2)nc2ccccc21` came in with a melting point of 163 °C.

`O=C(c1c(F)cccc1F)n1c(-c2c(F)cccc2F)nc2ccccc21` [Compound 47, 1-(2,6-difluorobenzoyl)-2-(2,6-difluorophenyl)benzimidazole]: the inhibition at 10 µM at HIV-1 WT RT (Table 2, 10 μM drug, WT RT, rC-dG template primer) came to 8%. At HIV-1 WT RT (WT RT), the “RT inhibition, result in words” value is on record as “did not show appreciable RT inhibition activity”.

`Cc1ccc2c(c1)nc(-c1c(F)cccc1F)n2Cc1c(F)cccc1F` returned a melting point of 147 to 149 °C.

As for `Cc1cccc2nc(-c3c(F)cccc3F)n(Cc3c(F)cccc3F)c12`, the melting point is 177 °C and 177 to 178 °C.

For `O=S(=O)(c1ccccc1)n1c(-c2c(F)cccc2F)nc2ccccc21`, the melting point lay within 104 to 106 °C.

`Cc1cccc2c1nc(C(C)C)n2Cc1c(F)cccc1F` [Compound 34, 1-(2,6-difluorobenzyl)-2-isopropyl-4-methylbenzimidazole] had a melting point of 151 to 153 °C. In the data set with HIV-1 WT virus (NL4-3), the “cytotoxicity and anti-viral effect, summary graph, result in words” value is listed as “effective therapeutic dose”.

As to `COC(=O)c1cccc2c1nc(-c1c(F)cccc1F)n2Cc1c(F)cccc1F`, the melting point was in the range of 184 to 186 °C.

Consider `C=C(C)c1cccc2c1nc(-c1c(F)cccc1F)n2Cc1c(F)cccc1F` [Compound 66, 1-(2,6-Difluorobenzyl)-2-(2,6-difluorophenyl)-4-isopropenylbenzimidazole], for which the melting point was in the range of 156 to 158 °C. Further, the EC50 with HIV-1 WT virus (NL4-3) (setting [1]) came to 1440 nM.

Take `Cc1cccc2c1nc(-c1cccnc1)n2Cc1c(F)cccc1F`: the melting point lay within 186 to 188 °C.

For the compound `N#Cc1cccc2c1nc(-c1c(F)cccc1F)n2Cc1c(F)cccc1F` [Compound 60, 1-(2,6-difluorobenzyl)-2-(2,6-difluorophenyl)-4-cyanobenzimidazole], the concentration giving a half-maximal response (EC50) in the data set with HIV-1 WT virus (NL4-3) (setting [1]) amounted to 430 nM.

On to `O=C(O)c1cccc2c1nc(-c1c(F)cccc1F)n2Cc1c(F)cccc1F` [Compound 64, 1-(2,6-Difluorobenzyl)-2-(2,6-difluorophenyl)benzimidazole-4-carboxylate], for which the melting point is 179 to 180 °C and 178 to 180 °C. Besides, in the data set with HIV-1 WT virus (NL4-3), the “inhibitory potency” value is on record as “clearly detrimental to potency” and the “EC50 (μM)” value is on record as “NRVC”.

`CC(=O)NCc1cccc2c1nc(-c1c(F)cccc1F)n2Cc1c(F)cccc1F` [Compound 72]: in the data set on HIV-1 WT virus (NL4-3), the “EC50 (μM)” value was “NRVC”.

Compound `Cc1cccc2c1nc(-c1ccncc1)n2Cc1c(F)cccc1F` displayed a melting point of 171 to 172 °C.

Regarding `Fc1cccc(F)c1COCc1nc2ccccc2n1Cc1c(F)cccc1F` [Compound 32, 1-(2,6-difluorobenzyl)-2-(2,6-difluorobenzyloxymethyl)benzimidazole], the melting point stood at 109 °C.

Compound `Cc1nc2ccccc2n1Cc1c(F)cccc1F` [Compound 35, 1-(2,6-difluorobenzyl)-2-methylbenzimidazole] displayed a melting point of 99 °C.

Regarding `Fc1cccc(F)c1Cn1c(-c2c(F)cccc2F)nc2cc(Br)ccc21` [Compound 38, 1-(2,6-Difluorobenzyl)-2-(2,6-difluorophenyl)-5-bromobenzimidazole], the melting point lay in the range of 155 to 156 °C. The “cytotoxicity and anti-viral effect, summary graph, result in words” value in the data set with HIV-1 WT virus (NL4-3) is “inactive”.

On to `O=[N+]([O-])c1ccc2c(c1)nc(-c1c(F)cccc1F)n2Cc1c(F)cccc1F`, for which the melting point is 168 to 169 °C.

As for `N=C(NO)c1cccc2c1nc(-c1c(F)cccc1F)n2Cc1c(F)cccc1F` [Compound 61, N-hydroxy 1-(2,6-difluorobenzyl)-2-(2,6-difluorophenyl)benzimidazole-4-carboxamidine], the melting point is 214 to 216 °C and 213 to 216 °C. In addition, in the data set on HIV-1 WT virus (NL4-3), the “inhibitory potency” value is on record as “clearly detrimental to potency”. Besides, the concentration for a half-maximal effect (EC50) in the data set on HIV-1 WT virus (NL4-3) (setting [1]) worked out at 190 nM.

`Cc1cccc2c1nc(-c1c(F)cccc1F)n2Cc1c(F)c(F)c(F)c(F)c1F` registered a melting point of 155 to 156 °C.

Take `Cc1ccc2c(nc(-c3c(F)cccc3F)n2Cc2c(F)cccc2F)c1C`: the melting point lay within 176 to 177 °C.

As to `Cc1ccc2nc(-c3c(F)cccc3F)n(Cc3c(F)cccc3F)c2c1`, the melting point lay within 172 to 173 °C.

As to `OCc1cccc2c1nc(-c1c(F)cccc1F)n2Cc1c(F)cccc1F` [Compound 67, 1-(2,6-Difluorobenzyl)-2-(2,6-difluorophenyl)-4-hydroxymethylbenzimidazole], the EC50 with HIV-1 WT virus (NL4-3) (setting [1]) came out at 23 nM.

For `O=Cc1cccc2c1nc(-c1c(F)cccc1F)n2Cc1c(F)cccc1F` [Compound 68, 1-(2,6-Difluorobenzyl)-2-(2,6-difluorophenyl)-benzimidazole-4-carbaldehyde], the melting point fell in the range of 151 to 153 °C. Besides, the EC50 with HIV-1 WT virus (NL4-3) (setting [1]) is 120 nM.

Regarding `CC(=O)N(C)Cc1cccc2c1nc(-c1c(F)cccc1F)n2Cc1c(F)cccc1F` [Compound 73, 1-(2,6-Difluorobenzyl)-2-(2,6-difluorophenyl)-4-(N-acetyl-N-methyl)-aminomethylbenzimidazole], in the data set on HIV-1 WT virus (NL4-3), the 50% effective concentration (EC50) came out at 580 nM.

For the compound `Cc1cccc2c1nc(-c1c(F)cccc1F)n2Cc1cccnc1`, the melting point was in the range of 131 to 132 °C.

In turn, `CC(C)=CCn1c(-c2c(F)cccc2F)nc2c(C)cccc21` [(X = CH3) R = prenyl, 1-(3,3-dimethylallyl)-2-(2,6-difluorophenyl)-4-methylbenzimidazole] registered a melting point of 78 to 79 °C.

The compound `Fc1cccc(F)c1Cn1c(-c2c(F)cccc2F)nc2ccc(Cl)cc21` returned a melting point of 152 to 153 °C.

`Cc1cccc2c1nc(CO)n2Cc1c(F)cccc1F` [Compound 48, 1-(2,6-difluorobenzyl)-2-hydroxymethyl-4-methylbenzimidazole]: the EC50 in the data set with HIV-1 WT virus (NL4-3) is 2400 nM. The inhibition at 10 µM at HIV-1 WT RT (Table 3, 10 μM drug, WT RT, rC-dG template primer) came out at 12%. Also, on HIV-1 WT RT (Table 6, 1 μM drug, WT HIV-1 RT, average of two experiments done in triplicates), the “% inhibn (1 μM)” value turned out to be 51%. Moreover, on HIV-1 WT RT (Table 11, WT RT, read-out: IC50), the 50% inhibitory concentration (IC50) was determined as 1880 nM.

The compound `COc1cccc2c1nc(C1CC1)n2Cc1c(F)cccc1F` had a melting point of 136 to 139 °C.
